According to PubChem BioAssay (NCI):
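Compound exposure: 48 hours, 5 concentrations, 96-well plates. GI50 marks 50% less growth. TGI: total growth inhibition.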

Tests used:
Test in all cases: inhibition of tumour cell growth, NCI panel, 48 h
A549 NSCLC = tested on: A549 NSCLC
COLO 205 colon = tested on: COLO 205 colon
KM12 colon = tested on: KM12 colon
LOX IMVI melanoma = tested on: LOX IMVI melanoma
M14 melanoma = tested on: M14 melanoma
MOLT-4 leukemia = tested on: MOLT-4 leukemia
RPMI-8226 leukemia = tested on: RPMI-8226 leukemia
UACC-62 melanoma = tested on: UACC-62 melanoma
HS 578T breast = tested on: HS 578T breast
PC-3 prostate = tested on: PC-3 prostate

Row | SMILES | TGI (A549 NSCLC) | TGI (COLO 205 colon) | TGI (KM12 colon) | TGI (LOX IMVI melanoma) | TGI (M14 melanoma) | TGI (MOLT-4 leukemia) | TGI (RPMI-8226 leukemia) | TGI (UACC-62 melanoma) | GI50 (A549 NSCLC) | GI50 (COLO 205 colon) | GI50 (KM12 colon) | GI50 (LOX IMVI melanoma) | GI50 (M14 melanoma) | GI50 (MOLT-4 leukemia) | GI50 (RPMI-8226 leukemia) | GI50 (UACC-62 melanoma) | GI50 (HS 578T breast) | TGI (HS 578T breast) | GI50 (PC-3 prostate) | TGI (PC-3 prostate)
1 | CC1C[C@H](OC(N)=O)C(C)CC1=O (stereo not given in full) | > 100 µM | > 100 µM | > 100 µM | > 100 µM | > 100 µM | > 100 µM | > 100 µM | > 100 µM |  |  |  |  |  |  |  |  |  |  |  | 
2 | CN(C)c1ccc(N=Cc2c([O-])ccc3ccccc23)cc1.[C-]#[O+].[C-]#[O+].[Ir] | 89.3 µM | 33.9 µM | 37.7 µM | 30.4 µM | 46.1 µM | 95 µM | > 100 µM | 35.9 µM | 31.8 µM | 17.5 µM | 18 µM | 15.4 µM | 20.7 µM | 15.4 µM | 23.2 µM | 17.2 µM |  |  |  | 
3 | COC1=CC(O)(CC(N)=O)c2ccccc2C1=O (stereo not given) | > 100 µM | > 100 µM | > 100 µM | > 100 µM | > 100 µM | > 100 µM | > 100 µM | > 100 µM |  |  |  |  |  |  |  |  |  |  |  | 
4 | C=C1C[C@](OC)([C@H](O)C(=O)N[C@@H](OC)[C@@H]2C[C@@H](O)C(C)(C)[C@@H](C[C@@H](COC)OC)O2)O[C@H](C)[C@@H]1C | 0.00558 µM | 0.00342 µM | 0.00339 µM | 0.00295 µM | 0.0041 µM | > 1 µM |  | 0.00524 µM | 0.00129 µM | 0.00123 µM | 0.000861 µM | 0.00121 µM | 0.00178 µM | 0.00437 µM |  | 0.00153 µM | 0.00136 µM | 0.0041 µM |  | 
5 | COc1ccc(-c2ccc(/C=N/n3c(COc4ccccc4Cl)nn(CN4CCN(C)CC4)c3=S)o2)c([N+](=O)[O-])c1 | 36.7 µM | 60.3 µM | 31.7 µM |  | 34.2 µM |  |  | 44.9 µM | 14.1 µM | 24.4 µM | 11.9 µM |  | 17.7 µM |  |  | 19.2 µM | 38.7 µM | 81.4 µM | 15.3 µM | 58.2 µM
6 | CC(=O)C1CC=C(C)CC1 (stereo not given) | > 100 µM | > 100 µM | > 100 µM | > 100 µM | > 100 µM | > 100 µM | > 100 µM | > 100 µM |  |  |  |  |  |  |  |  |  |  |  | 
7 | CC/C=C1\N=C(c2ccc(Cl)cc2)OC1=O | > 100 µM | > 100 µM | > 100 µM | > 100 µM | > 100 µM | > 100 µM | > 100 µM | > 100 µM |  |  |  |  |  |  |  |  |  |  |  | 
8 | CCn1cc(/C=C/C(C)c2cn(CC)c(=O)[nH]c2=O)c(=O)[nH]c1=O (stereo not given) | > 100 µM | > 100 µM | > 100 µM | > 100 µM | > 100 µM | > 100 µM | > 100 µM | > 100 µM |  |  |  |  |  |  |  |  |  |  |  | 
9 | COc1ccc2oc3c4c2c1CCC4CCC3=O (stereo not given) | > 100 µM | > 100 µM | > 100 µM | > 100 µM | > 100 µM | > 100 µM | > 100 µM | > 100 µM |  |  |  |  |  |  |  |  |  |  |  | 
10 | CC1=CC(=O)CCC2(C)C1CC[C@@H]2OC=O (stereo not given in full) | > 100 µM | > 100 µM | > 100 µM | > 100 µM | > 100 µM | > 100 µM | > 100 µM | > 100 µM |  |  |  |  |  |  |  |  |  |  |  | 
11 | O=C(CC1(O)C(=O)Nc2ccccc21)c1ccccc1Cl (stereo not given) | > 100 µM | > 100 µM |  | > 100 µM | > 100 µM | > 100 µM | > 100 µM | > 100 µM |  |  |  |  |  |  |  |  |  |  |  | 
12 | CC(C)c1ccccc1NC(=O)C(=O)Cc1nc2ccccc2s1 | > 100 µM | > 100 µM | > 100 µM |  | > 100 µM | > 100 µM |  | > 100 µM |  |  |  |  |  |  |  |  |  |  |  | 
13 | CCOC(=O)N1CCc2cc(OC)c(OC)c3c2C1CC3=O (stereo not given) | > 100 µM | > 100 µM | > 100 µM | > 100 µM | > 100 µM | > 100 µM | > 100 µM | > 100 µM |  |  |  |  |  |  |  |  |  |  |  | 
14 | CCn1c2c(n(CC)c1=S)-c1c(n(CC)c(=S)n1CC)SSSS2 | 68.4 µM | 19.1 µM | 35.9 µM | 23.2 µM | 18.1 µM | 11.1 µM | 9.34 µM | 18.6 µM |  |  |  |  |  |  |  |  |  | 91.1 µM |  | 
15 | O=C(CO)CC(=O)C(=O)Nc1nc([N+](=O)[O-])cs1 | > 100 µM | > 100 µM | > 100 µM | > 100 µM | > 100 µM | > 100 µM | > 100 µM | > 100 µM |  |  |  |  |  |  |  |  |  |  |  | 
16 | N#CC(C(=O)/C(=N\Nc1nc(=S)[nH]n1N)C(C#N)c1ccc(Cl)cc1)c1ccc(Cl)cc1 (stereo not given) | > 100 µM | > 100 µM | > 100 µM | > 100 µM | > 100 µM |  | > 100 µM | > 100 µM |  |  |  |  |  |  |  |  |  |  |  | 
17 | CC(C)(C)NN=C1C(C)(C)C(=NNC(C)(C)C)C1(C)C | > 100 µM | > 100 µM | > 100 µM | > 100 µM | > 100 µM | > 100 µM | > 100 µM | > 100 µM |  |  |  |  |  |  |  |  |  |  |  | 
